Where “and” joins values, the source holds several entries; their conditions need not be identical. Equal entries are not always repeated.
System: LH
Assay: LRH assay in vivo in rats: serum LH by radioimmunoassay before and after injection of the peptide
Conditions: for increase of the LH level: in vivo assay in rats; for mμg LH/ml serum before: before injection
Procedure: The LRH assay was performed by the procedure of Ramirez and McCann (Endocrinology 73, 193 (1963) ). Serum assays for LH were performed in duplicate by the double antibody radioimmuno assay of Niswender et al. (Proc. Soc. Exp. Biol. Med. 128, 807 (1968)) using antiovine LH serum and ovine LH-^131 I. The activity was determined by comparison of LH levels before and after injection of the peptide.

SMILES	doses at which it releases LRH (active dose) [ng]	increase of the LH level (dose of 25 ng) [times]	increase of the LH level (dose of 50 ng)	potency compared among the three decapeptides I, II, III (rat, in vivo)	mμg LH/ml serum before (dose level 25 μg)	mμg LH/ml serum after (dose level 200 μg, after injection) [mμg LH/ml serum]	mμg LH/ml serum before (dose level 200 μg)
CC(C)C[C@H](NC(=O)CNC(=O)[C@H](Cc1ccc(O)cc1)NC(=O)[C@H](CO)NC(=O)[C@H](Cc1c[nH]c2ccccc12)NC(=O)[C@H](Cc1c[nH]cn1)NC(=O)[C@@H]1CCC(=O)N1)C(=O)N[C@@H](CCCNC(=N)N)C(=O)N1CCC[C@H]1C(=O)NCC(N)=O [I, pGlu-His-Trp-Ser-Tyr-Gly-Leu-Arg-Pro-Gly-NH2]	1 to 25	30	maximum increase	most potent	–	–	–
CC(C)C[C@H](NC(=O)CNC(=O)[C@H](Cc1ccc(O)cc1)NC(=O)[C@H](CO)NC(=O)[C@H](Cc1c[nH]c2ccccc12)NC(=O)[C@H](Cc1c[nH]cn1)NC(=O)[C@@H]1CCC(=O)N1)C(=O)N[C@@H](CCCNC(=N)N)C(=O)N1CCC[C@H]1C(=O)NCC(=O)O [II, pGlu-His-Trp-Ser-Tyr-Gly-Leu-Arg-Pro-Gly-OH]	–	–	–	–	4.4 mμg LH/ml serum and 5.8 mμg LH/ml serum	> 285.0	< 4.0 mμg LH/ml serum and 4.0 mμg LH/ml serum
